Laboratory results: patent publication US20250375461A1, “IDENTIFICATION OF A NEW POTENT INHIBITOR OF MYCOBACTERIAL GROWTH” (priority 2024, published 2025)
Values after ≈ are worked out from the molar mass of the structure shown. Read-outs that look alike come from different tables or passages of the source.

What was measured:
E. coli WO0153 [1] = assay: Microscopy of E. coli WO0153 in presence of BI.aada; type: cell-based
Protocol: (§1) In FIG. 1, […]=0.5×MIC. […] Magnification is 1000×. The compound BI.aada also has an MIC of […] against the gram-negative E. coli WO0153, which has a leaky outer membrane, and no activity against E. coli K12, which has a normal membrane. […] The stubby phenotype is similar to that observed with NAG-thiazoline (lytic transglycosylase inhibitor) with E. coli. In FIG. 3, purple: no growth; pink: bacterial growth; and MIC determined as lowest concentration that inhibits growth: 50 μM.

M. absescus = assay: MIC against M. absescus; type: cell-based
M. smegmatis [2] = assay: MIC assay: M. smegmatis with BI.aada; type: cell-based; settings: Mycolicibacterium smegmatis
Protocol: FIG. 4, FIG. 5, and FIG. 6 show enlarged views of MIC Assay: M. smegmatis with BI.aada.
as §1

M. avium = assay: MIC against M. avium; type: cell-based; settings: Mycobacterium avium
E. coli K12 = assay: Activity against E. coli K12 (normal membrane); type: cell-based
Protocol: as §1

M. smegmatis [3] = assay: Microscopy of M. smegmatis in presence of BI.aada; type: cell-based
Protocol: as §1

E. coli WO0153 [4] = assay: MIC assay: E. coli WO0153 (leaky outer membrane); type: cell-based
Protocol: as §1

Bacillus cereus = assay: Resazurin microtiter whole cell assay, MIC, B. cereus; type: cell-based
Protocol: Each Ugi reaction was carried out using either propargyl amine or propiolic acid as the alkyne component to provide either propionamides or N-propargyl amides as the diamide products. While Ugi-reactions can sometimes require prolonged reaction times, we identified conditions that reduced the reaction time to 4-5 hours at elevated temperature and in many cases proceeded to completion, enabling use of the Ugi product directly in the next reaction.^49-51 The Ugi-derived terminal alkynes were then subjected to a copper accelerated azide-alkyne coupling reaction using a redox couple of copper powder and copper (II) sulfate. To further facilitate synthesis of the library we simplified the purification of the compounds by using the alkyne building blocks in excess for the copper accelerated azide-alkyne coupling reaction. This ensured complete consumption of the azido sugar 1, and the unreacted alkyne residue could be easily removed using a silica plug after the reaction, eliminating the need for column chromatography. Removal of trace copper salts from the reaction was carried out by incubating the reaction solution with a commercially available copper chelating resin prior to purification using the silica plug. The library of GNTs was screened for its ability to inhibit the growth of a panel of different Gram-positive bacteria. […]

B. cereus = assay: Standard bactericidal assay (colony counts), B. cereus; type: cell-based
Protocol: The library was initially screened against all test organisms at a single concentration (250 μM) (ESIt). This high initial concentration was chosen as many soluble derivatives of PG bind to bacterial autolysins with KD values in the high micromolar range.^53 Compounds showing at least 40% inhibition in growth were selected for further investigation. […] We identified two compounds that inhibited the growth of Bacillus cereus and Bacillus subtilis in the micromolar range (FIG. 9). […] Both BI.abcb and BI.fgba were screened in a standard bactericidal assay.^54 Briefly, B. subtilis and B. cereus were grown in either the absence or presence of inhibitor (at the MIC) for 4 hours.
The cells were harvested, washed and subject to serial dilution prior to plating on nutrient broth agar.

Gram-negative bacteria = settings: cited from earlier work
E. coli = settings: NAG thiazoline treatment; cited from earlier work

For `CCCCNC(=O)C(C(C)C)N(CC(c1ccccc1)c1ccccc1)C(=O)c1cn(C2OC(CO)[C@@H](O)C(O)C2NC(C)=O)nn1` (stereo partly drawn) [BI.aada], the “cell morphology (microscopy)” value (E. coli WO0153 [1]; E. coli WO0153 in presence of BI.aada) was “altered cell morphology”, the “phenotype in FIG. 2” value (E. coli WO0153 [1]; sub-MIC treated E. coli WO153, 50 µM BI.aada, compared to control) was “clumping phenotype” and the MIC (M. absescus) was under 0.5 µM. It also gave an MIC (M. absescus; Feature 15) of under 0.5 µM, an MIC (M. smegmatis [2]) of 0.05 µM (≈ 0.0325 µg/mL) and an MIC (M. avium) of under 0.5 µM. The “activity against E. coli K12” value (E. coli K12) was “no activity”, the “phenotype in FIG. 1” value (M. smegmatis [3]; 25 nM=0.5×MIC, magnification 1000×) was “aberrant division occurring along side wall” and the “cell morphology (microscopy)” value (M. smegmatis [3]; M. smegmatis in presence of BI.aada) was “altered cell morphology”. The MIC (E. coli WO0153 [4]; Escherichia coli, WO0153, read-out: MIC determined as lowest concentration that inhibits growth) was 50 µM (≈ 32.5 µg/mL), the MIC (E. coli WO0153 [4]; Escherichia coli, E. coli WO0153, leaky outer membrane, read-out: MIC) was 70 µM (≈ 45.6 µg/mL) and the MIC (E. coli WO0153 [4]; Gram negative E. coli WO0153, Feature 16) was 70 µM (≈ 45.6 µg/mL).
For `COc1ccc(C(C(=O)NCc2ccccc2)N(Cc2ccccc2)C(=O)c2cn(C3OC(CO)C(O)C(O)C3NC(C)=O)nn2)cc1` (stereo not drawn) [BI.abcb], the MIC (Bacillus cereus) was 60 µM (≈ 39.5 µg/mL), the “nature of antibacterial action” value (B. cereus; colony counts similar to controls) was “bacteriostatic” and the “Colony counts for growth in the presence of compound” value (B. cereus; inhibitor at the MIC, 4 hours) was 7.00±1.70×10^8 cfu mL^−1.
For `CC(=O)N[C@H]1[C@H](O[C@H]2C[C@@H](C(=O)NCCS(=O)(=O)O)N[C@@H]2CO)O[C@H](CO)[C@@H](OS(=O)(=O)O)[C@@H]1O` [bulgecin A], the “minimum inhibitory concentration in whole cell assays” value (Gram-negative bacteria) is given as “do not demonstrate a measurable minimum inhibitory concentration”.
For `CC1=N[C@@H]2[C@@H](O)[C@H](O)[C@@H](CO)O[C@@H]2S1` [NAG thiazoline], the “minimum inhibitory concentration in whole cell assays” value (Gram-negative bacteria) is given as “do not demonstrate a measurable minimum inhibitory concentration” and the “effect on E. coli cells” value (E. coli) is given as “formation of shorter cells without affecting cell viability”.
